These results are taken from the supplement of paper PMC10307832.

What all share (assay): relative viability (nuclei count vs DMSO), 5 days (fraction); higher = more cells survive
Compound in assay [1]: CC1=CC=C(C=C1)C(=O)CN2C3=C(CCCC3)SC2=N [Pifithrin_alpha] + CCNC(=O)c1noc(-c2cc(C(C)C)c(O)cc2O)c1-c1ccc(CN2CCOCC2)cc1 [Luminespib] (partner 0.01 µM)
In short, it runs like this:
(§1)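 Relative viability equals treated-well nuclei counts divided by vehicle-well nuclei counts. Counts came from 4× images of lung cancer cell lines grown in 1536-well plates for 5 days after pin-tool dosing on the day after seeding. Dosing used one drug alone or a fixed anchor-drug dose plus five library-drug doses (not always all listed) in √10 steps, and values are medians of duplicate plates.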

Compound in assay [2]: CC1=CC=C(C=C1)C(=O)CN2C3=C(CCCC3)SC2=N [Pifithrin_alpha] + Cc1nc(NC(=O)N2CCC[C@H]2C(N)=O)sc1-c1ccnc(C(C)(C)C(F)(F)F)c1 [Alpelisib] (partner 2 µM)
In short, it runs like this: as §1

Compound in assay [3]: CC1=CC=C(C=C1)C(=O)CN2C3=C(CCCC3)SC2=N [Pifithrin_alpha] + NC(=O)Nc1cc(-c2cccc(F)c2)sc1C(=O)N[C@H]1CCCNC1 [AZD7762] (partner 0.2 µM)
The procedure, abridged: as §1

Compound in the assay “Axitinib + Crizotinib”: CNC(=O)c1ccccc1Sc1ccc2c(/C=C/c3ccccn3)n[nH]c2c1 [Axitinib] + C[C@@H](Oc1cc(-c2cnn(C3CCNCC3)c2)cnc1N)c1c(Cl)ccc(F)c1Cl [Crizotinib] (partner 1 µM)
In short, it runs like this: as §1

Take NCI-H650: the relative viability in assay [1] (first compound 3.162 µM) was 0.904; in assay [1] (first compound 10 µM), 0.801; in assay [1] (first compound 31.62 µM), 0.607; in assay [1] (first compound 100 µM) it was 0.773; in assay [2] (first compound 3.162 µM) it was 1.12; in assay [2] (first compound 10 µM), 1.13. Also, the relative viability stood at 0.755 in assay [2] (first compound 31.62 µM); 1.09 in assay [2] (first compound 100 µM); 1.08 in assay [3] (first compound 3.162 µM); 0.932 in assay [3] (first compound 10 µM); 0.718 in assay [3] (first compound 31.62 µM); 0.905 in assay [3] (first compound 100 µM). The relative viability amounted to 0.859 with Axitinib + Crizotinib (first compound 0.005 µM); 0.745 with Axitinib + Crizotinib (first compound 0.01581 µM); 0.779 with Axitinib + Crizotinib (first compound 0.05 µM); 0.782 with Axitinib + Crizotinib (first compound 0.1581 µM); 0.903 in the assay with Axitinib + Crizotinib (first compound 0.5 µM).
